Source: the RepoRT retention time repository (doi:10.1016/j.jchromb.2020.122105)

Key:
Conditions in all cases: stereoisomer not certain
[1] = RP, Waters CORTECS T3, 100 × 2.1 mm, 2.7 µm, 0.3 mL/min, estimated dead time 0.73 min; A: water + 0.1% formic acid, pH 3; B: methanol + 0.1% formic acid, pH 3; gradient (min/%B) 0/0 5/0 25/100 30/100 30.1/0 35/0
[2] = RP, Waters CORTECS T3, 100 × 2.1 mm, 2.7 µm, 0.2 mL/min, estimated dead time 1.1 min; A: water + 0.1% formic acid, pH 3; B: methanol + 0.1% formic acid, pH 3; gradient (min/%B) 0/0 1/0 6/5 30/100 35/100 35.1/0 40/0
[3] = RP, Waters CORTECS T3, 100 × 2.1 mm, 2.7 µm, 0.3 mL/min, estimated dead time 0.73 min; A: water + 0.1% formic acid, pH 3; B: methanol + 0.1% formic acid, pH 3; gradient (min/%B) 0/0 1/0 6/5 30/100 35/100 35.1/0 40/0
[4] = RP, Waters CORTECS T3, 100 × 2.1 mm, 2.7 µm, 0.2 mL/min, estimated dead time 1.1 min; A: water + 0.1% formic acid, pH 3; B: methanol + 0.1% formic acid, pH 3; gradient (min/%B) 0/5 5/5 25/95 25.1/100 35/100 35.1/5 45/5
[5] = RP, Thermo Scientific Hypercarb, 150 × 2.1 mm, 5 µm, 0.1 mL/min, estimated dead time 3.3 min; A: water + 0.1% formic acid, pH 3; B: methanol + 0.1% formic acid, pH 3; gradient (min/%B) 0/5 5/5 20/100 35/100 35.1/5 45/5
[6] = RP, Waters CORTECS T3, 100 × 2.1 mm, 2.7 µm, 0.15 mL/min, estimated dead time 1.5 min; A: water + 0.1% formic acid, pH 3; B: methanol + 0.1% formic acid, pH 3; gradient (min/%B) 0/5 5/5 25/95 25.1/100 35/100 35.1/5 45/5
[7] = RP, Waters ACQUITY UPLC BEH C18, 100 × 2.1 mm, 1.7 µm, 0.2 mL/min, estimated dead time 1.1 min; A: water + 0.1% formic acid, pH 3; B: methanol + 0.1% formic acid, pH 3; gradient (min/%B) 0/5 5/5 25/100 30/100 30.1/5 35/5
[8] = RP, Waters CORTECS T3, 100 × 2.1 mm, 2.7 µm, 0.25 mL/min, estimated dead time 0.88 min; A: water + 0.1% formic acid, pH 3; B: methanol + 0.1% formic acid, pH 3; gradient (min/%B) 0/5 5/5 25/95 25.1/100 35/100 35.1/5 45/5
[9] = RP, Waters CORTECS T3, 100 × 2.1 mm, 2.7 µm, 0.2 mL/min, estimated dead time 1.1 min; A: water + 0.045% formic acid + 0.11% ammonium hydroxide, pH 7; B: methanol; gradient (min/%B) 0/5 5/5 25/95 25.1/100 35/100 35.1/5 45/5
[10] = RP, Waters ACQUITY UPLC BEH C18, 100 × 2.1 mm, 1.7 µm, 0.1 mL/min, estimated dead time 2.2 min; A: water + 0.1% formic acid, pH 3; B: methanol + 0.1% formic acid, pH 3; gradient (min/%B) 0/5 5/5 25/95 25.1/100 35/100 35.1/5 45/5
[11] = as above; remark: listed apart in the source
[12] = as above; remark: listed apart in the source
[13] = RP, Waters ACQUITY UPLC BEH C18, 100 × 2.1 mm, 1.7 µm, 0.2 mL/min, estimated dead time 1.1 min; A: water + 0.025% formic acid + 20 mM ammonium acetate + 0.055% ammonium hydroxide, pH 7; B: methanol; gradient (min/%B) 0/5 5/5 25/100 30/100 30.1/5 35/5
[14] = as above; remark: listed apart in the source
[15] = HILIC, Merck SeQuant ZIC-HILIC, 150 × 2.1 mm, 5 µm, 0.75 mL/min, estimated dead time 0.44 min; A: water + 10 mM ammonium formate, pH 6; B: 5% water + 95% acetonitrile + 10 mM ammonium formate, pH 6; gradient (min/%B) 0/95 5/95 20/57 25/57 30/95 40/95
[16] = HILIC, Merck SeQuant ZIC-HILIC, 150 × 2.1 mm, 5 µm, 0.75 mL/min, estimated dead time 0.44 min; A: water + 0.1% acetic acid + 10 mM ammonium acetate, pH 4; B: 5% water + 95% acetonitrile + 0.1% acetic acid + 10 mM ammonium acetate, pH 4; gradient (min/%B) 0/95 5/95 20/57 25/57 30/95 40/95
[17] = HILIC, Waters XBridge BEH Amide, 100 × 2.1 mm, 2.5 µm, 0.5 mL/min, estimated dead time 0.44 min; A: water + 0.1% acetic acid + 10 mM ammonium acetate, pH 4; B: 5% water + 95% acetonitrile + 0.1% acetic acid + 10 mM ammonium acetate, pH 4; gradient (min/%B) 0/95 5/95 20/57 25/57 30/95 40/95
[18] = HILIC, Thermo Scientific Accucore HILIC, 100 × 2.1 mm, 2.6 µm, 0.5 mL/min, estimated dead time 0.44 min; A: water + 0.1% formic acid + 10 mM ammonium formate, pH 3; B: 5% water + 95% acetonitrile + 0.1% formic acid + 10 mM ammonium formate, pH 3; gradient (min/%B) 0/95 5/95 20/57 25/57 30/95 40/95

## c1ncc2[nH]cnc2n1 [PURINE]
[1]
  LC retention time: 2.61 min
[2]
  LC retention time: 3.64 min
[3]
  LC retention time: 2.6 min
[4]
  LC retention time: 6.98 min
[5]
  LC retention time: 35.3 min
[6]
  LC retention time: 3.26 min
[7]
  LC retention time: 2.36 min
[8]
  LC retention time: 1.99 min
[9]
  LC retention time: 3.15 min
[10]
  LC retention time: 4.62 min
[11]
  LC retention time: 4.65 min
[12]
  LC retention time: 2.69 min
[13]
  LC retention time: 1.74 min
[14]
  LC retention time: 3.15 min
[15]
  LC retention time: 1.31 min
[16]
  LC retention time: 1.25 min
[17]
  LC retention time: 1.59 min
[18]
  LC retention time: 1.41 min
